Values quoted from earlier work in patent publication US20030049260A1, “Method of improving cognitive function” (priority 2001, published 2003).

Conditions: for Change in Symbol Digit: max. increase: duration 12 weeks, An J Geriatr Psychiatry 1999;7:221-227

CNCCC(Oc1ccc(C(F)(F)F)cc1)c1ccccc1 (stereo not drawn) [Fluoxetine]
Change in Symbol Digit: max. increase: 10% increase

CC(C)NCC(O)COc1cccc2ccccc12 (stereo not drawn) [Propranolol]
Change in Symbol Digit: decline as compared to placebo (duration 8 hours, Br. J. Clin Pharmac 1984;17:31-36): 10-15% decline

CN[C@@H](C)Cc1ccccc1 [Methamphetamine]
Change in Symbol Digit: reduction in drug group as compared to a control group (in vivo): Significant 14%

CN[C@H]1CC[C@@H](c2ccc(Cl)c(Cl)c2)c2ccccc21 [Sertraline]
Change in Symbol Digit: max. increase: 21% increase

Cc1nnc2n1-c1ccc(Cl)cc1C(c1ccccc1Cl)=NC2 [Triazolam]
Change in Symbol Digit: reduction (in vivo): 10-20% reduction

CNC1(c2ccccc2Cl)CCCCC1=O (stereo not drawn) [Ketamine]
Change in Symbol Digit: decline (in vivo): 5-10% decline
